For assay [1], the target named is T1, human recombinant 15-PGDH (Homo sapiens, UniProt P15428).
T1 sequence (P15428 1-266): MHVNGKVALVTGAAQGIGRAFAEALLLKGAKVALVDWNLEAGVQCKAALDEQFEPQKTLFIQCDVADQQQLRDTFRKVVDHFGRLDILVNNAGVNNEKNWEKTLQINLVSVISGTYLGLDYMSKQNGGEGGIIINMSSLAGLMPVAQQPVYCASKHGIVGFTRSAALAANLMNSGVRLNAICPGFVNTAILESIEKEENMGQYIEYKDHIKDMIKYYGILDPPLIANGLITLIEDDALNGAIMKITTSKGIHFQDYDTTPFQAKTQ
In words: Recombinant 15-PGDH enzymatic inhibition assay (PGDH-Lumi, NADH signal). It counts as biochemical. The following applies: recombinant 15-PGDH; 15 min pre-incubation, 60 min reaction with PGE2 and NAD+, NADH signal. The method, boiled down:
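Buffer 50 mM Tris pH 7.5 with 0.01% Tween-20 and […]; compound, 22 two-fold dilutions, pre-incubated with enzyme 15 min before substrate.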

For a further assay, the target named is T2, 15-PGDH in A549 cells (Homo sapiens, UniProt P15428).
T2 construct: endogenous in cells; host or cells: A549
T2 sequence (P15428 1-266): T1 sequence (P15428 1-266)
In words: A549 cellular 15-PGDH assay (PGE2 accumulation, HTRF). It counts as cell-based. Conditions: interleukin-stimulated, inhibitor 24 hrs, PGE2 by competitive HTRF, read-out: A549 Cell Assay IC50. The method, boiled down: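 Supernatant PGE2 was quantified by competitive HTRF, in which sample PGE2 blocks FRET between a europium cryptate-labelled antibody and labelled PGE2. It came from A549 epithelial cells induced with IL-13. IC50s were calculated from the inversely proportional signal.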

With `O[C@@H](c1cc2ccc(-c3cnc4[nH]nnc4c3)nc2s1)C1CCOCC1` (single isomer, unassigned) [Compound B44R], the IC50 came out at 0.464 nM in assay [1] and 2.61 nM on 15-PGDH in A549 cells.

For the compound `CO[C@]1(C)C[C@@](O)(c2cc3cnc(-c4cnc5c(c4)nnn5C)nc3s2)C1` (single isomer, unassigned) [Compound C121C], the figures for the IC50 (in assay [1]; on 15-PGDH in A549 cells) were 10.4 nM and 23.8 nM, respectively.

As to `Cn1cc2cc(-c3ncc4cc([C@]5(O)C[C@@H](OC(F)(F)F)C5)sc4n3)cnc2n1` [Compound C100C, cis-1-(2-(2-methyl-2H-pyrazolo[3,4-b]pyridin-5-yl)thieno[2,3-d]pyrimidin-6-yl)-3-(trifluoromethoxy)cyclobutanol], the IC50 in assay [1] turned out to be 0.3 nM; at 15-PGDH in A549 cells, 0.671 nM.

Take `Cc1c([C@@H](O)C2CCOCC2)sc2nc(-c3cnc4nn(C)cc4c3)ccc12` (single isomer, unassigned) [Compound B90S]: the IC50 was determined as 488 nM in assay [1] and 237 nM on 15-PGDH in A549 cells.

On to `O[C@H](c1cc2ccc(-c3ccc4nccnc4c3)nc2s1)C1CC(F)(F)C1` (single isomer, unassigned) [Compound B52S], for which the IC50 in assay [1] was found to be 1.6 nM; at 15-PGDH in A549 cells, 11.7 nM.

Consider `Cn1cc2cc(-c3ccc4nc([C@H](O)C5CC(F)(F)C5)sc4n3)cnc2n1` (single isomer, unassigned) [Compound B72R], for which the IC50 in assay [1] is 0.216 nM; at 15-PGDH in A549 cells it was 0.0479 nM.

For the compound `CO[C@H]1CC[C@]1(O)c1cc2ccc(-c3cnc4nn(C)cc4c3)nc2s1` (single isomer, unassigned) [Compound C70RS], the half-inhibitory concentration (IC50) was 3860 nM in assay [1] and above 750 nM at 15-PGDH in A549 cells.

Take `Cn1cc2cc(-c3ccc4cc([C@]5(O)C[C@]6(CCO6)C5)sc4n3)cnc2n1` (single isomer, unassigned) [Compound C56C, cis-6-(6-(2-methyl-2H-pyrazolo[3,4-b]pyridin-5-yl)thieno[2,3-b]pyridin-2-yl)-1-oxaspiro[3.3]heptan-6-ol]: the IC50 in assay [1] was found to be 0.423 nM; on 15-PGDH in A549 cells it was 0.18 nM.

For `Cn1cc2cc(-c3ccc4cc([C@H](O)[C@H]5CC5(F)F)sc4n3)cnc2n1` (single isomer, unassigned) [Compound B85RR], the values for the IC50 (in assay [1]; at 15-PGDH in A549 cells) were 0.47 nM and 0.704 nM, respectively.

With `Cn1cc2cc(-c3ccc4ccc([C@H](O)C5CC(F)(F)C5)cc4n3)cnc2n1` (single isomer, unassigned) [Compound D1R], the results for the IC50 (in assay [1]; on 15-PGDH in A549 cells) were 0.605 nM and 0.0822 nM, respectively.

Turning to `Cn1cc2cc(-c3ncc4cc([C@]5(O)C[C@](C)(C#N)C5)sc4n3)cnc2n1` (single isomer, unassigned) [Compound C96T, trans-3-hydroxy-1-methyl-3-(2-(2-methyl-2H-pyrazolo[3,4-b]pyridin-5-yl)thieno[2,3-d]pyrimidin-6-yl)cyclobutanecarbonitrile], the half-maximal inhibitory concentration (IC50) worked out at 0.445 nM in assay [1] and 1.39 nM at 15-PGDH in A549 cells.

With `Cn1nnc2cc(-c3ccc4nc([C@]5(O)C[C@@H](C(F)F)C5)sc4n3)cnc21` [Compound C82C, cis-3-(difluoromethyl)-1-(5-(3-methyl-3H-[1,2,3]triazolo[4,5-b]pyridin-6-yl)[1,3]thiazolo[5,4-b]pyridin-2-yl)cyclobutanol], the IC50 in assay [1] came to 9.49 nM; at 15-PGDH in A549 cells it was 34.2 nM.

Consider `Cn1cc2cc(-c3ccc4cc([C@H](O)[C@H]5C[C@@H](C(F)(F)F)C5)sc4n3)cnc2n1` (single isomer, unassigned) [Compound B84RC], for which the 50% inhibitory concentration (IC50) in assay [1] stood at 0.47 nM; at 15-PGDH in A549 cells, 0.492 nM.

As for `Cn1cc2cc(-c3ccc4nc(C5(O)CC6(CC6)C5)sc4n3)cnc2n1` [Compound C108, 5-(5-(2-methyl-2H-pyrazolo[3,4-b]pyridin-5-yl)[1,3]thiazolo[5,4-b]pyridin-2-yl)spiro [2.3]hexan-5-ol], the results for the half-maximal inhibitory concentration (IC50) (in assay [1]; at 15-PGDH in A549 cells) were 0.671 nM and 1.25 nM, respectively.

On to `Cn1nnc2cc(-c3ccc4ccc([C@H](O)C5CCOCC5)cc4n3)cnc21` (single isomer, unassigned) [Compound D3R], for which the IC50 in assay [1] is 21700 nM; at 15-PGDH in A549 cells, 289 nM.

Consider `Cn1cc2cc(-c3ccc4ccc(C5(O)CC(C)(C)C5)cc4n3)cnc2n1` [Compound D2, 3,3-dimethyl-1-(2-(2-methyl-2H-pyrazolo[3,4-b]pyridin-5-yl)-7-quinolinyl)cyclobutanol], for which the IC50 in assay [1] is 537 nM; at 15-PGDH in A549 cells it was 268 nM.

On to `CO[C@H]1CC[C@@]1(O)c1cc2ccc(-c3cnc4nn(C)cc4c3)nc2s1` (single isomer, unassigned) [Compound C70SS], for which the IC50 in assay [1] was determined as 2280 nM; at 15-PGDH in A549 cells, 316 nM.

For the compound `Cc1cn2cc(-c3ccc4cc(C5(O)CC(F)(F)C5)sc4n3)ccc2n1` [Compound C37, 3,3-difluoro-1-(6-(2-methylimidazo[1,2-a]pyridin-6-yl)thieno[2,3-b]pyridin-2-yl)cyclobutanol], the values for the IC50 (in assay [1]; at 15-PGDH in A549 cells) were 9.01 nM and 2.28 nM, respectively.

Regarding `CO[C@]1(C)C[C@](O)(c2cc3cnc(-c4cnc5c(c4)nnn5C)nc3s2)C1` (single isomer, unassigned) [Compound C121T, trans-3-methoxy-3-methyl-1-(2-(3-methyl-3H-[1,2,3]triazolo[4,5-b]pyridin-6-yl)thieno[2,3-d]pyrimidin-6-yl)cyclobutanol], the 50% inhibitory concentration (IC50) in assay [1] came out at 6.52 nM; on 15-PGDH in A549 cells, 13.4 nM.

Turning to `CO[C@]1(C)C[C@](O)(c2cc3ccc(-c4cnc5c(c4)nnn5C)nc3s2)C1` (single isomer, unassigned) [Compound C102T, trans-3-methoxy-3-methyl-1-(6-(3-methyl-3H-[1,2,3]triazolo[4,5-b]pyridin-6-yl)thieno[2,3-b]pyridin-2-yl)cyclobutanol], the IC50 stood at 1.65 nM in assay [1] and 5.77 nM on 15-PGDH in A549 cells.

As for `Cc1cn2ccc(-c3ccc4cc([C@H](O)C5CC(F)(F)C5)sc4n3)cc2n1` (single isomer, unassigned) [Compound B55R], the IC50 is 0.308 nM in assay [1] and 0.657 nM at 15-PGDH in A549 cells.

As to `Cn1cc2cc(-c3ccc4cc(C(O)C5CCC5)sc4n3)cnc2n1` (centres unmarked) [Compound B18, cyclobutyl(6-(2-methyl-2H-pyrazolo[3,4-b]pyridin-5-yl)thieno[2,3-b]pyridin-2-yl)methanol], the results for the 50% inhibitory concentration (IC50) (in assay [1]; on 15-PGDH in A549 cells) were 0.382 nM and 0.0918 nM, respectively.

Regarding `CO[C@]1(C(F)(F)F)C[C@@](O)(c2cc3cnc(-c4cnc5nn(C)cc5c4)nc3s2)C1` (single isomer, unassigned) [Compound C113C, cis-3-methoxy-1-(2-(2-methyl-2H-pyrazolo[3,4-b]pyridin-5-yl)thieno[2,3-d]pyrimidin-6-yl)-3-(trifluoromethyl)cyclobutanol], the results for the concentration for half-maximal inhibition (IC50) (in assay [1]; at 15-PGDH in A549 cells) were 1.42 nM and 7.19 nM, respectively.

With `CO[C@]1(C)C[C@@](O)(c2nc3ccc(-c4cnc5nn(C)cc5c4)nc3s2)C1` (single isomer, unassigned) [Compound C125C, cis-3-methoxy-3-methyl-1-(5-(2-methyl-2H-pyrazolo[3,4-b]pyridin-5-yl)[1,3]thiazolo[5,4-b]pyridin-2-yl)cyclobutanol], the IC50 is 0.817 nM in assay [1] and 2.9 nM on 15-PGDH in A549 cells.

In the case of `O[C@]1(c2cc3cnc(-c4ccc5nccnc5c4)nc3s2)C[C@H](C(F)(F)F)C1` [Compound C123C, cis-1-(2-(6-quinoxalinyl)thieno[2,3-d]pyrimidin-6-yl)-3-(trifluoromethyl)cyclobutanol], the figures for the IC50 (in assay [1]; on 15-PGDH in A549 cells) were 0.967 nM and 6.18 nM, respectively.

In the case of `COCC[C@@H](O)c1cc2ccc(-c3cnc4nn(C)cc4c3)cc2s1` (single isomer, unassigned) [Compound B59R], the IC50 amounted to 4.75 nM in assay [1] and 7.79 nM at 15-PGDH in A549 cells.

For `Cn1cc2cc(-c3ccc4cc(C5(O)CC(C)(C)C5)sc4n3)cnc2n1` [Compound C26, 3,3-dimethyl-1-(6-(2-methyl-2H-pyrazolo[3,4-b]pyridin-5-yl)thieno[2,3-b]pyridin-2-yl)cyclobutanol], the IC50 in assay [1] came to 0.273 nM; at 15-PGDH in A549 cells, 0.0601 nM.

As for `Cn1cc2cc(-c3ncc4cc([C@]5(O)C[C@@H](C(F)(F)F)C5)sc4n3)cnc2n1` [Compound C71C, cis-1-(2-(2-methyl-2H-pyrazolo[3,4-b]pyridin-5-yl)thieno[2,3-d]pyrimidin-6-yl)-3-(trifluoromethyl)cyclobutanol], the results for the 50% inhibitory concentration (IC50) (in assay [1]; at 15-PGDH in A549 cells) were 0.54 nM and 0.142 nM, respectively.

`Cn1cc2cc(-c3ncc4sc([C@]5(O)C[C@@H](C(F)F)C5)cc4n3)cnc2n1` [Compound C89C, cis-3-(difluoromethyl)-1-(2-(2-methyl-2H-pyrazolo[3,4-b]pyridin-5-yl)thieno[3,2-d]pyrimidin-6-yl)cyclobutanol]: the results for the IC50 (in assay [1]; at 15-PGDH in A549 cells) were 33.8 nM and 49.1 nM, respectively.

Take `Cn1cc2cc(-c3ccc4cc([C@@H](O)C56CC(C(F)(F)F)(C5)C6)sc4n3)cnc2n1` (single isomer, unassigned) [Compound B91S]: the results for the half-maximal inhibitory concentration (IC50) (in assay [1]; on 15-PGDH in A549 cells) were 34.9 nM and 2.37 nM, respectively.

Regarding `Cn1cc2cc(-c3ccc4cc([C@@H](O)[C@H]5C[C@H](C(F)(F)F)C5)sc4n3)cnc2n1` (single isomer, unassigned) [Compound B84ST], the IC50 in assay [1] came to 1.21 nM; on 15-PGDH in A549 cells, 0.642 nM.

(Values after patent publication US20240409557A1, “5,6-FUSED AND 6,6-FUSED BICYCLIC ALCOHOLS AND ETHERS AND COMPOSITIONS FOR USE AS 15-PROSTAGLANDIN DEHYDROGENASE MODULATORS” (AMGEN INC., priority 2023, published 2024).)
